Test system: incision wounds
Test: Wound healing of incision wounds in mice
Type: in vivo
Conditions: incision wounds swabbed daily, scored after 5 days
Text: In mice, incision wounds to the flanks (six 1.5 cm wounds per animal) were swabbed daily with either a solution containing GHL-Cu (100 micrograms per mL) in phosphate-buffered saline (PBS) or PBS alone (6 animals each group). After 5 days, the wounds were scored 1.0 for complete closure, 0.5 for partial closure, and 0.0 for non-closure.

Row | Substance | healing of wounds in mice
1 | glycyl-L-histidyl-L-lysine n-palmityl ester: copper (II) | significantly enhances the wound-healing process
2 | glycyl-L-histidyl-L-lysine n-stearyl ester: copper (II) | significantly enhances the wound-healing process

From EP0288278B1, “Chemical derivatives of GHL-CU” (PROCYTE CORPORATION, priority 1987, dated 1994)
